Experimental findings from patent US4616086A, “Piperazine-substituted aryl and aralkyl carboxylic acids useful for treating infirmaties caused by excess lipids or thrombocyte” (Boehringer Mannheim GmbH, priority 1981, dated 1986) are described below.

In data set [1] the test system is cholesterol and triglyceride levels in the serum. Briefly: Lowering of Lipid Levels (cholesterol and triglyceride levels in the serum of male rats of normal metabolism, 7 days). It is filed as in vivo. Particulars: 100 mg/kg/d for 7 days in methyl cellulose suspension, serum 3 hours after last dose, in comparison to control; for inhibition in vivo at 100 mg/kg/day: Rattus norvegicus, po. The protocol:
In each case, 10 male rats of normal metabolism were administered the test substance for 7 days in a dosage of 100 mg/kg/d in methyl cellulose suspension. At the end of the experiment, 3 hours after the last does was administered, the cholesterol and triglyceride levels in the serum were determined. The changes are given in Table I expressed as a percentage in comparison to control for a representative selection of compounds.

The subject of a further data set is thrombocyte aggregation. Briefly: Inhibition of Aggregation (Born test, adrenalin-induced thrombocyte aggregation, platelet-rich plasma). Particulars: for % of inhibition of thrombocyte aggregation: human PRP, adrenalin 5×10^-6 mol/l, 2nd phase, test concentration 14^-4 mol/l [sic]. In kind it is cell-based, human. As to the method:
Venous blood from subjects of normal metabolism is mixed with sodium citrate (9:1). The erythrocytes are settled by centrifugation at 150 g. The thrombocytes are concentrated in the supernatant. This supernatant is referred to as platelet-rich plasma (PRP). An aliquot of the PRP is placed in the cell of an aggregometer (Universal Aggregometer mfd. by Braun Melsungen) and there stirred by means of a small magnet. The substance to be tested is added in an aqueous solution (pH approx. 7). Changes in the light transmission in the suspension are continuously registered by a recorder. After spontaneous aggregation ends, aggregation is triggered by the addition of adrenalin (end concentration 5×10^-6 mol/l). Larger clumps of thrombocytes form and this causes the transmission of light through the suspension to increase.
The adrenalin-induced aggregation takes place in two phases, i.e., the light transmission first increases, then briefly remains steady, and then again increases. Only the second phase of the aggregation can be influenced by aggregation inhibitors.
With the same PRP, aggregation is induced with adrenalin after addition of the test substance and the course of the aggregation is registered with the recorder. The angle of the 2nd phase from the horizontal is again determined and the ratio of the two angles gives the percentage of inhibition of the 2nd phase of the thrombocyte aggregation.
All substances were tested in a concentration of 14^-4 mol/l in determining their aggregation inhibiting action.

Setting [2] is: read-out: % of reduction of cholesterol.
[3] abbreviates: read-out: % of reduction of triglycerides.
[4] abbreviates: Homo sapiens, read-out: inhibition of the 2nd phase of thrombocyte aggregation (standard).

Each structure is given as a SMILES string. Like-named read-outs stand apart in the source and are kept apart here.

For `O=C(O)Cc1ccc(CCN2CCN(S(=O)(=O)c3ccc(Cl)cc3)CC2)cc1` [49 e], the inhibition in vivo at 100 mg/kg/day in data set [1] (setting [2]) was found to be 41%; in data set [1] (setting [3]) it was 8%.

For `O=C(O)Cc1ccc(N2CCN(S(=O)(=O)c3ccccc3)CC2)cc1` [50 o], the inhibition in vivo at 100 mg/kg/day in data set [1] (setting [2]) worked out at 26%; in data set [1] (setting [3]), 14%.

Consider `O=C(O)c1ccc(CCN2CCN(CC=Cc3ccc([N+](=O)[O-])cc3)CC2)cc1` [Example 34o, 4-{2-[1-(4-nitrocinnamyl)-piperazin-4-yl]-ethyl}-benzoic acid], for which the light sensitivity entry is listed as “Light sensitive”.

On to `CS(=O)(=O)N1CCN(CCc2ccc(C(=O)O)cc2)CC1` [33 m], for which the inhibition in vivo at 100 mg/kg/day in data set [1] (setting [2]) was found to be 20%; in data set [1] (setting [3]) it was 30%.

As to `CC(Cc1ccc(Cl)cc1)CN1CCN(CCc2ccc(C(=O)O)cc2)CC1` (centres unmarked) [33 u], the inhibition in vivo at 100 mg/kg/day turned out to be 28% in data set [1] (setting [2]) and 32% in data set [1] (setting [3]).

On to `O=C(O)c1ccc(CCN2CCN(S(=O)(=O)c3ccc(Cl)cc3)CC2)cc1` [33 o], for which the inhibition in vivo at 100 mg/kg/day in data set [1] (setting [2]) worked out at 35%; in data set [1] (setting [3]), 13%.

Take `CC(CN1CCN(CCc2ccc(C(=O)O)cc2)CC1)Oc1ccccc1` (centres unmarked) [33 d]: in data set [1], the “% of reduction of cholesterol” value was found to be 43% and the “% of reduction of triglycerides” value was 41%. Also, the “% of inhibition of thrombocyte aggregation” value with thrombocyte aggregation is listed as 6%.

As to `CC(C)(C)c1cc(C=CC(=O)N2CCN(CCc3ccc(CC(=O)O)cc3)CC2)cc(C(C)(C)C)c1O` [50 f], the figures for the inhibition in vivo at 100 mg/kg/day in data set [1] (setting [2]) and in data set [1] (setting [3]) were 40% and 16%, respectively.

For `CCCCCCCCCCCCCCCCN1CCN(c2ccc(CCC(=O)O)cc2)CC1` [Example 58, 3-[4-(1-n-Hexadecylpiperazin-4-yl)-phenyl]-propionic acid], the values for the inhibition in vivo at 100 mg/kg/day in data set [1] (setting [2]) and in data set [1] (setting [3]) were 17% and 6%, respectively.

As to `COc1ccc(OC(C)CN2CCN(CCc3ccc(C(=O)O)cc3)CC2)cc1` (centres unmarked) [33 f], in data set [1], the “% of reduction of cholesterol” value is listed as 37% and the “% of reduction of triglycerides” value turned out to be 42%.

Consider `CCOC(=O)c1ccc(N2CCNCC2)cc1` [Example 1, Ethyl 4-(piperazin-1-yl)-benzoate], for which the hygroscopicity entry (hydrochloride) is “hydroscopic”.

In the case of `O=C(O)Cc1ccc(CCN2CCN(S(=O)(=O)c3ccccc3)CC2)cc1` [50 g], the inhibition in vivo at 100 mg/kg/day is 28% in data set [1] (setting [2]) and 9% in data set [1] (setting [3]).

In the case of `O=C(O)c1ccc(N2CCN(CCCc3ccccc3)CC2)cc1` [13 i], the results for the inhibition in vivo at 100 mg/kg/day in data set [1] (setting [2]) and in data set [1] (setting [3]) were 38% and 15%, respectively.

Regarding `O=C(O)c1ccc(CCN2CCN(c3ccc(Oc4ccccc4)cc3)CC2)cc1` [33 r], the inhibition in vivo at 100 mg/kg/day in data set [1] (setting [2]) was 33%; in data set [1] (setting [3]) it was 15%.

In the case of `CC(=O)Oc1ccccc1C(=O)O` [acetylsalicylic acid, reference compound], in the data set on thrombocyte aggregation (setting [4]), the inhibition (as a rule, the change of the read-out against control, counted positive when it falls) at 50 µM is 0% and the inhibition at 100 µM is 100%.

`CC(=Cc1ccc(CCN2CCN(C(=O)c3ccc(Cl)cc3)CC2)cc1)C(=O)O` [67 d1]: the inhibition in vivo at 100 mg/kg/day in data set [1] (setting [2]) came to 37%; in data set [1] (setting [3]), 9%.

Take `CCOC(=O)c1ccc(CCCN2CCN(C(=O)c3ccc(Cl)cc3)CC2)cc1` [55 b]: the inhibition in vivo at 100 mg/kg/day in data set [1] (setting [2]) came to 33%; in data set [1] (setting [3]), 3%.

In the case of `O=C(O)c1ccc(CCN2CCN(CCOc3ccccc3)CC2)cc1` [33 c], the inhibition in vivo at 100 mg/kg/day was found to be 13% in data set [1] (setting [2]) and 11% in data set [1] (setting [3]). Further, the “% of inhibition of thrombocyte aggregation” value with thrombocyte aggregation is on record as 40%.

Take `CCCCOC(=O)CCc1ccc(N2CCN(C(=O)C=Cc3ccc(Cl)cc3)CC2)cc1` [Example 55, n-Butyl 3-{4-[1-(4-chlorocinnamoyl)-piperazin-4-yl]-phenyl}-propionate]: the light sensitivity result is on record as “light-sensitive”.

For the compound `O=C(O)c1ccc(CCN2CCN(Cc3ccccc3Cl)CC2)cc1` [34 i], in data set [1], the “% of reduction of cholesterol” value was determined as 21% and the “% of reduction of triglycerides” value is on record as 10%. Moreover, in the data set on thrombocyte aggregation, the “% of inhibition of thrombocyte aggregation” value came out at 100%.

On to `CC(C)(C)c1cc(CCN2CCN(c3ccc(CC(=O)O)cc3)CC2)cc(C(C)(C)C)c1O` [50 j], for which the inhibition in vivo at 100 mg/kg/day in data set [1] (setting [2]) worked out at 40%; in data set [1] (setting [3]), 0%.

In the case of `CC(C)(C)c1cc(CCC(=O)N2CCN(CCc3ccc(C(=O)O)cc3)CC2)cc(C(C)(C)C)c1O` [33 l], in data set [1], the “% of reduction of cholesterol” value came out at 38% and the “% of reduction of triglycerides” value came to 22%.

On to `O=C(O)c1ccc(CCN2CCN(CC=Cc3ccc(Cl)cc3)CC2)cc1` [34 c], for which the figures for the inhibition in vivo at 100 mg/kg/day in data set [1] (setting [2]) and in data set [1] (setting [3]) were 30% and 40%, respectively. In the data set on thrombocyte aggregation, the “% of inhibition of thrombocyte aggregation” value was found to be 7%.

Regarding `O=C(O)c1ccc(CCN2CCN(Cc3ccc(Cl)cc3)CC2)cc1` [33 b], the values for the inhibition in vivo at 100 mg/kg/day in data set [1] (setting [2]) and in data set [1] (setting [3]) were 40% and 30%, respectively. Further, in the data set with thrombocyte aggregation, the “% of inhibition of thrombocyte aggregation” value amounted to 19%.

With `O=C(O)c1ccc(CCN2CCN(C(=O)c3ccc(Cl)cc3)CC2)cc1` [33 i], in data set [1], the “% of reduction of cholesterol” value is reported as 41% and the “% of reduction of triglycerides” value was determined as 24%.

`CC(CN1CCN(CCc2ccc(C(=O)O)cc2)CC1)Oc1ccc([N+](=O)[O-])cc1` (centres unmarked) [34 s]: the inhibition in vivo at 100 mg/kg/day turned out to be 47% in data set [1] (setting [2]) and 21% in data set [1] (setting [3]).

As to `CC(CN1CCN(c2ccc(C=CC(=O)O)cc2)CC1)Oc1ccccc1` (centres unmarked) [65 d1], the figures for the inhibition in vivo at 100 mg/kg/day in data set [1] (setting [2]) and in data set [1] (setting [3]) were 5% and 20%, respectively.
